Consider twelve compounds from patent publication US9512120B2, “Microbicidally active imidazopyridine derivatives” (Syngenta Participations AG, priority 2013, dated 2016).

Broadly, the melting point is the temperature, or range, at which the solid turns liquid. The inhibition is the change of the read-out against control, counted positive when it falls.

SMILES strings stand for the structures.

The test system of one data set is Pyrenophora teres. Briefly: Pyrenophora teres / barley / leaf disc preventative (net blotch). In kind it is in vivo. The following applies: foliar, barley leaf segments cv Hasso, inoculated two days after application, assessed 5-7 days after application, read-out: control of Pyrenophora teres (disease control compared to untreated). In a few lines: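 Barley cv Hasso leaf segments on agar sprayed with compound at 200 ppm, inoculated with spores two days later. Kept at 20 °C, 65% RH, 12/12 h light; disease control versus untreated scored 5-7 days after application.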

Data set [1] deals with Mycosphaerella arachidis (Cercospora arachidicola). The data set is described as follows: Mycosphaerella arachidis (Cercospora arachidicola) / liquid culture (early leaf spot). It counts as cell-based. The following applies: PDB, 24° C., 4-5 days after application, read-out: control of Mycosphaerella arachidis (inhibition of growth, photometric). In a few lines:
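Conidia suspended in potato dextrose broth and added to test compound from DMSO solution at 200 ppm. Incubated at 24 °C; growth inhibition read photometrically 4-5 days after application.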

The subject of data set [2] is Puccinia recondita f. sp. Tritici. The data set is described as follows: Puccinia recondita f. sp. tritici / wheat / leaf disc curative (brown rust). In kind it is in vivo. The following applies: foliar, wheat leaf segments cv Kanzler, applied 1 day after inoculation, assessed 6-8 days after application, read-out: control of Puccinia recondita f. sp. Tritici (percent disease control compared to untreated). The protocol: Puccinia recondita f. Sp. Tritici/Wheat/Leaf Disc Curative (Brown Rust): Wheat leaf segments cv Kanzler were placed on agar in 24-well plates. The leaf segments were inoculated with a spore suspension of the fungus. The plates were stored in darkness at 19° C. and 75% relative humidity. The formulated test compound diluted in water was applied at an application rate of 200 ppm 1 day after inoculation. […] Tritici at 200 ppm when compared to untreated control leaf disks under the same conditions, which show extensive disease development: 2, 13, 16, 23, 30, 61, 75, 89, 103, 173, 174

Data set [3] deals with Fusarium graminearum, syn. Gibberella zeae. Briefly: whole plant or invertebrate. In kind it is in vivo. The conditions noted are these: in Triticum aestivum, 144 h, read-out: control of Gibberella zeae (preventative fungicidal activity).
A further data set deals with Pythium ultimum. Briefly: Pythium ultimum / liquid culture (seedling damping off). The conditions noted are these: Globisporangium ultimum, potato dextrose broth, 24° C., 2-3 days after application, read-out: control of Pythium ultimum (inhibition of growth, photometric). In kind it is cell-based. In a few lines: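 Test compound in DMSO at 200 ppm was incubated with mycelia fragments and oospores in potato dextrose broth at 24 °C. Growth inhibition was read photometrically 2-3 days after application.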

In data set [4] the test system is Glomerella lagenarium (Colletotrichum lagenarium). The data set is described as follows: Glomerella lagenarium (Colletotrichum lagenarium) / liquid culture (anthracnose). It counts as cell-based. The conditions noted are these: Colletotrichum orbiculare, PDB, 24° C., 3-4 days after application, read-out: control of Glomerella lagenarium (inhibition of growth, photometric). In a few lines:
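Cryopreserved conidia suspended in potato dextrose broth were added to compound in DMSO applied at 200 ppm. Plates incubated at 24° C; growth inhibition read photometrically 3-4 days after application.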

The subject of another data set is Fusarium culmorum. The data set is described as follows: microbe, parasite or virus in culture. It counts as cell-based. The conditions noted are these: read-out: control of Fusarium culmorum (inhibition of growth, photometric).
The subject of another data set is Sclerotinia sclerotiorum. The data set is described as follows: Sclerotinia sclerotiorum liquid culture (cottony rot / white mold). It counts as cell-based. The following applies: PDB, 24° C., 3-4 days after application, read-out: control of Sclerotinia sclerotiorum (inhibition of growth, photometric). Summed up:
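Mycelia fragments of Sclerotinia sclerotiorum in potato dextrose broth were added to compound in DMSO. Cultures incubated at 24° C; growth inhibition determined photometrically 3-4 days after application.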

Another data set concerns Plasmopara viticola. Briefly: Plasmopara viticola / grape / leaf disc preventative. It counts as in vivo. The following applies: foliar, grape vine leaf disks, inoculated 1 day after application, assessed 6-8 days after application, read-out: control of Plasmopara viticola (percent disease control compared to untreated).

`CCCn1c(-n2ncnc2N)nc2cnccc21` [Compound 13, 2-(1-propylimidazo[4,5-c]pyridin-2-yl)-1,2,4-triazol-3-amine] returned a melting point of 210 to 212 °C. Also, the pest or weed control at 200 ppm in the data set with Pyrenophora teres is at least 80%. In addition, the inhibition at 20 ppm in data set [1] is at least 80%. Also, the pest or weed control at 200 ppm in [2] was at least 80%. Also, the pest or weed control at 20 ppm in data set [3] was at least 80%. Also, the inhibition at 20 ppm in the data set with Pythium ultimum is at least 80%. Also, the inhibition at 20 ppm in data set [4] is at least 80%.

Consider `CCc1cncc2nc(-n3ncnc3N)n(CC)c12` [Compound 23, 2-(1,7-diethylimidazo[4,5-c]pyridin-2-yl)-1,2,4-triazol-3-amine], for which the melting point lay within 176 to 179 °C. For the same compound, in the data set on Pyrenophora teres, the pest or weed control at 200 ppm is at least 80%. The inhibition at 20 ppm with Fusarium culmorum was at least 80%. Besides, in [1], the inhibition at 20 ppm is at least 80%. For the same compound, the inhibition at 20 ppm in the data set with Sclerotinia sclerotiorum was at least 80%. Moreover, the pest or weed control at 200 ppm in data set [2] was at least 80%. The pest or weed control at 20 ppm in data set [3] is at least 80%. Moreover, in the data set with Pythium ultimum, the inhibition at 20 ppm was at least 80%. Also, the inhibition at 20 ppm in data set [4] is at least 80%.

In the case of `CC=Cc1cncc2nc(-n3ncnc3N)n(CC)c12` [Compound 67, 2-(1-ethyl-7-prop-1-enylimidazo[4,5-c]pyridin-2-yl)-1,2,4-triazol-3-amine], the pest or weed control at 200 ppm in the data set on Pyrenophora teres was at least 80%. Further, the inhibition at 20 ppm (in data set [1]; in the data set with Sclerotinia sclerotiorum; in the data set on Pythium ultimum; in data set [4]) was at least 80% in each case.

`CCn1c(-n2ncnc2N)nc2cncc(C(C)=O)c21` [Compound 75, 1-[2-(5-amino-1,2,4-triazol-1-yl)-1-ethylimidazo[4,5-c]pyridin-7-yl]ethanone] gave a melting point of 242 to 244 °C. For the same compound, in the data set on Pyrenophora teres, the pest or weed control at 200 ppm is at least 80%. In addition, the inhibition at 20 ppm in data set [1] was at least 80%. Also, in the data set on Sclerotinia sclerotiorum, the inhibition at 20 ppm is at least 80%. For the same compound, the pest or weed control at 200 ppm in [2] is at least 80%.

In the case of `CCn1c(-n2ncnc2N)nc2cncc(-c3ccc(F)c(F)c3F)c21` [Compound 86, 2-[1-ethyl-7-(2,3,4-trifluorophenyl)imidazo[4,5-c]pyridin-2-yl]-1,2,4-triazol-3-amine], the pest or weed control at 200 ppm in the data set with Pyrenophora teres is at least 80%. Also, the inhibition at 20 ppm (in the data set with Fusarium culmorum; in [1]; in the data set with Sclerotinia sclerotiorum; in the data set on Pythium ultimum; in data set [4]) was at least 80% in each case.

On to `CCn1c(-n2ncnc2N)nc2cncc(-c3cccnc3F)c21` [Compound 89, 2-[1-ethyl-7-(2-fluoropyridin-3-yl)imidazo[4,5-c]pyridin-2-yl]-1,2,4-triazol-3-amine], for which the pest or weed control at 200 ppm (with Pyrenophora teres; in data set [2]) was at least 80% throughout. The inhibition at 20 ppm (in the data set on Fusarium culmorum; in the data set on Sclerotinia sclerotiorum; with Pythium ultimum; in data set [4]) was at least 80% throughout. In [3], the pest or weed control at 20 ppm was at least 80%.

As to `CCn1c(-n2ncnc2N)nc2cncc(-c3cccc(Cl)c3F)c21` [Compound 90, 2-[7-(3-chloro-2-fluorophenyl)-1-ethylimidazo[4,5-c]pyridin-2-yl]-1,2,4-triazol-3-amine], the pest or weed control at 200 ppm with Pyrenophora teres was at least 80%. For the same compound, the inhibition at 20 ppm (in the data set on Fusarium culmorum; in data set [1]; in the data set with Sclerotinia sclerotiorum; in data set [4]) was at least 80% throughout. The pest or weed control at 20 ppm in data set [3] was at least 80%.

As to `CCn1c(-n2ncnc2N)nc2cncc(-c3cccc(OC)c3F)c21` [Compound 93, 2-[1-ethyl-7-(2-fluoro-3-methoxyphenyl)imidazo[4,5-c]pyridin-2-yl]-1,2,4-triazol-3-amine], the pest or weed control at 200 ppm in the data set on Pyrenophora teres is at least 80%. Moreover, the inhibition at 20 ppm (in the data set on Fusarium culmorum; in data set [1]; in the data set on Sclerotinia sclerotiorum; in data set [4]) was at least 80% in each case. Also, the pest or weed control at 20 ppm in data set [3] was at least 80%.

Consider `CCn1c(-n2ncnc2N)nc2cncc(-c3cccc(F)c3F)c21` [Compound 102, 2-[7-(2,3-difluorophenyl)-1-ethylimidazo[4,5-c]pyridin-2-yl]-1,2,4-triazol-3-amine], for which the pest or weed control at 200 ppm in the data set with Pyrenophora teres was at least 80%. For the same compound, the inhibition at 20 ppm (in the data set with Fusarium culmorum; in data set [1]; in the data set with Sclerotinia sclerotiorum; in the data set with Pythium ultimum; in data set [4]) was at least 80% each time. The pest or weed control at 20 ppm in [3] was at least 80%.

With `CCn1c(-n2ncnc2N)nc2cncc(/C(C)=N\OC/C=C(\C)Cl)c21` [Compound 153, 2-[7-[(Z)-N-[(E)-3-chlorobut-2-enoxy]-C-methyl-carbonimidoyl]-1-ethyl-imidazo[4,5-c]pyridin-2-yl]-1,2,4-triazol-3-amine], the pest or weed control at 200 ppm in the data set with Pyrenophora teres and in the data set on Plasmopara viticola was at least 80% in each case. The inhibition at 20 ppm (in the data set on Fusarium culmorum; in data set [1]; in the data set with Sclerotinia sclerotiorum; in data set [4]) was at least 80% throughout.

As for `CCCn1c(-n2ncnc2N)nc2cncc(C)c21` [Compound 173, 2-(7-methyl-1-propyl-imidazo[4,5-c]pyridin-2-yl)-1,2,4-triazol-3-amine], the pest or weed control at 200 ppm (with Pyrenophora teres; in data set [2]) was at least 80% in each case. Moreover, the inhibition at 20 ppm (in data set [1]; in the data set with Pythium ultimum; in data set [4]) was at least 80% throughout.

As for `CCCn1c(-n2ncnc2N)nc2cncc(CC)c21` [Compound 174, 2-(7-ethyl-1-propyl-imidazo[4,5-c]pyridin-2-yl)-1,2,4-triazol-3-amine], the pest or weed control at 200 ppm (in the data set on Pyrenophora teres; in the data set on Plasmopara viticola; in data set [2]) was at least 80% each time. The inhibition at 20 ppm (with Pythium ultimum; in data set [4]) was at least 80% throughout.
